We go through 26 molecules from the supplement of paper PMC12137928.

Where a name gives a salt, the structure may show the parent alone. Some results are limits rather than exact numbers.

The subject of this experiment is HCT116. The note with it: 72 h. The method in brief:
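Luminescence was read with CellTiter-Glo in HCT116 cells seeded at 250 per well in 1536-well plates. Signals were scaled between vehicle at 0% and positive control at -100%, then pattern-corrected. IC50 and maximal efficacy were obtained by fitting a four-parameter Hill equation.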

Take `CC(=O)OCC(=O)[C@@]12OC(C)(C)O[C@@H]1C[C@H]1[C@@H]3C[C@H](F)C4=CC(=O)C=C[C@]4(C)[C@@]3(F)[C@@H](O)C[C@@]12C` [Fluocinonide]: the IC50 cell viability is > 45.8 µM (ICRF193 0 nM) and > 45.8 µM (ICRF193 200 nM).

For the molecule `CN1CCc2nc(C(=O)N[C@@H]3C[C@@H](C(=O)N(C)C)CC[C@@H]3NC(=O)C(=O)Nc3ccc(Cl)cn3)sc2C1` [Edoxaban tosylate monohydrate], the IC50 cell viability was > 45.8 µM (ICRF193 0 nM) and > 45.8 µM (ICRF193 200 nM).

Turning to `CC(C)[N+]1(C)[C@@H]2CC[C@H]1C[C@@H](OC(=O)C(CO)c1ccccc1)C2` (some centres not stated) [Ipratropium bromide], the IC50 cell viability by setting is: (ICRF193 0 nM) > 45.8 µM; (ICRF193 200 nM) > 45.8 µM.

With `CC[C@@H](CO)NC(=O)[C@@H]1C=C2c3cccc4c3c(cn4C)C[C@H]2N(C)C1` [Methysergide], the IC50 cell viability is > 45.8 µM (ICRF193 0 nM) and > 45.8 µM (ICRF193 200 nM).

Consider `C#C[C@]1(O)C=C[C@H]2[C@@H]3CCC4=CC(=O)CC[C@@H]4[C@H]3CC[C@@]21CC` [Gestodene], for which the IC50 cell viability is > 45.8 µM (ICRF193 0 nM) and > 45.8 µM (ICRF193 200 nM).

Regarding `O=S(=O)(O)c1ccc(O)cc1` [4-Phenolsulfonic acid], the IC50 cell viability by setting is: (ICRF193 0 nM) > 45.8 µM; (ICRF193 200 nM) > 45.8 µM.

Regarding `CO/N=C(\C(=O)N[C@@H]1C(=O)N2C(C(=O)OC(C)OC(C)=O)=C(COC(N)=O)CS[C@H]12)c1ccco1` (some centres not stated) [Cefuroxime Axetil], the IC50 cell viability was > 45.8 µM (ICRF193 0 nM) and > 45.8 µM (ICRF193 200 nM).

With `C[C@@H]1[C@H](O)[C@@H](C)/C=C/C=C/C=C/C=C/C=C/C=C/C=C/[C@H](O[C@@H]2O[C@H](C)[C@@H](O)[C@H](N)[C@@H]2O)C[C@@H]2O[C@](O)(C[C@@H](O)C[C@@H](O)[C@H](O)CC[C@@H](O)C[C@@H](O)CC(=O)O[C@H]1C)C[C@H](O)[C@H]2C(=O)O` [Amphotericin B], the IC50 cell viability was > 45.8 µM (ICRF193 0 nM) and > 45.8 µM (ICRF193 200 nM).

Take `NS(=O)(=O)c1cc2c(cc1Cl)CN(C1CCCCC1)C2=O` [Chlorexolone]: the IC50 cell viability (ICRF193 0 nM) was > 45.8 µM and the IC50 cell viability (ICRF193 200 nM) is > 45.8 µM.

As for `CC(=O)[C@@]1(O)CC[C@H]2[C@@H]3CCC4=CC(=O)CC[C@@H]4[C@H]3CC[C@@]21C` [Gestonorone], the IC50 cell viability runs as follows: (ICRF193 0 nM) > 45.8 µM; (ICRF193 200 nM) > 45.8 µM.

For `O=C(O)[C@@H](O)[C@H](O)[C@H](O)[C@@H](O)C(=O)O` [Mucic acid], the IC50 cell viability is, setting by setting: (ICRF193 0 nM) > 45.8 µM; (ICRF193 200 nM) > 45.8 µM.

For the molecule `CCOC(=O)C1(c2ccccc2)CCN(CCc2ccc(N)cc2)CC1` [Anileridine], the IC50 cell viability reads like this: (ICRF193 0 nM) > 45.8 µM; (ICRF193 200 nM) > 45.8 µM.

Turning to `CNS(=O)(=O)Cc1ccc2[nH]cc(CCN(C)C)c2c1` [Sumatriptan], the IC50 cell viability runs as follows: (ICRF193 0 nM) > 45.8 µM; (ICRF193 200 nM) > 45.8 µM.

In the case of `O=C(c1ccccc1)C(O)c1ccccc1` (configuration not stated) [Benzoin], the IC50 cell viability is > 45.8 µM (ICRF193 0 nM) and > 45.8 µM (ICRF193 200 nM).

Regarding `NC(=O)c1cc([N+](=O)[O-])cc([N+](=O)[O-])c1` [Nitromide], the IC50 cell viability reads like this: (ICRF193 0 nM) > 45.8 µM; (ICRF193 200 nM) > 45.8 µM.

On to `CC(C)CN(C[C@@H](O)[C@H](Cc1ccccc1)NC(=O)O[C@H]1CCOC1)S(=O)(=O)c1ccc(N)cc1` [Amprenavir], for which the IC50 cell viability runs as follows: (ICRF193 0 nM) > 45.8 µM; (ICRF193 200 nM) > 45.8 µM.

As for `O=c1[nH]c2ccccc2n1CCN1CCN(c2cccc(C(F)(F)F)c2)CC1` [FLIBANSERIN], the IC50 cell viability is > 45.8 µM (ICRF193 0 nM) and > 45.8 µM (ICRF193 200 nM).

On to `CC[C@H]1[C@@H]2C[C@H]3[C@@H]4N(C)c5ccccc5[C@]45C[C@@H]([C@@H]2[C@H]5O)N3[C@@H]1O` [Ajmaline], for which the IC50 cell viability by setting is: (ICRF193 0 nM) > 45.8 µM; (ICRF193 200 nM) > 45.8 µM.

As to `Cn1c(=O)c2[nH]c(Br)nc2n(C)c1=O` [8-Bromotheophylline], the IC50 cell viability is, setting by setting: (ICRF193 0 nM) > 45.8 µM; (ICRF193 200 nM) > 45.8 µM.

As for `CCCCCc1ccc(C)cc1O` [Amylmetacresol], the IC50 cell viability (ICRF193 0 nM) was > 45.8 µM and the IC50 cell viability (ICRF193 200 nM) is > 45.8 µM.

For the molecule `CCOc1cc2ncc(C#N)c(Nc3ccc(OCc4ccccn4)c(Cl)c3)c2cc1NC(=O)/C=C/CN(C)C` [Neratinib], the IC50 cell viability (ICRF193 0 nM) is > 45.8 µM and the IC50 cell viability (ICRF193 200 nM) was > 45.8 µM.

Regarding `CCCCOc1ccc(C[N+]2(C)[C@@H]3CC[C@H]2C[C@H](OC(=O)C(CO)c2ccccc2)C3)cc1` (some centres not stated) [Butropium Bromide], the IC50 cell viability (ICRF193 0 nM) is > 45.8 µM and the IC50 cell viability (ICRF193 200 nM) was > 45.8 µM.

With `CC[N+](C)(CC)CCOC(=O)C(O)(c1ccccc1)c1ccccc1` [Benzactyzine methobromide], the IC50 cell viability runs as follows: (ICRF193 0 nM) > 45.8 µM; (ICRF193 200 nM) > 45.8 µM.

`CN1CC2c3ccccc3Oc3ccc(Cl)cc3C2C1` (configuration not stated) [Asenapine]: the IC50 cell viability (ICRF193 0 nM) is > 45.8 µM and the IC50 cell viability (ICRF193 200 nM) was > 45.8 µM.

For the molecule `CO/N=C1\CN(c2nc3c(cc2F)c(=O)c(C(=O)O)cn3C2CC2)CC1CN` (configuration not stated) [Gemifloxacin mesylate], the IC50 cell viability is > 45.8 µM (ICRF193 0 nM) and > 45.8 µM (ICRF193 200 nM).

For the molecule `CN(C)CCOC(C)(c1ccccc1)c1ccccn1` (configuration not stated) [Doxylamine succinate], the IC50 cell viability is > 45.8 µM (ICRF193 0 nM) and > 45.8 µM (ICRF193 200 nM).
